Experimental findings from patent publication US12595504B2, “Methods for screening compounds for bactericidal activity and for determining the sensitivity of bacterial samples” (priority 2020, dated 2026) are described below.

In series [1] the test system is E. coli MG1655 reporter cells. The class given is cell-based, Escherichia coli. Here is the method:
The classical luciferase was from Molecular Probes (ATP Determination Kit (A22066)). The thermostable luciferase was from “CheckLite AT100” (kikkoman). The Luciferin-luciferase reagents were prepared following manufacturer instructions. Bacteria from exponentially growing cultures (OD600=0.3) were added to each well (60 μl/well) of a black 96-microtiter plate (Greiner Bio-one, 655076) and 20 μl of the luciferin-luciferase reagent solution was added. The microtiter plate was incubated 5 min at 37° C. for reaction with the luciferase to eliminate traces of extracellular ATP. Then 40 μl of antibiotic solution (3 times concentrated) prepared in the culture medium were added. Bioluminescence of each well was monitored for 4 hours under shaking (218 rpm) and at 28 or 37° C., depending on the experiments (see legends of Figures). The reagent stability in presence or absence of antibiotics was checked in control experiments without bacteria but with 4 pmoles of ATP. Tests were also performed in 384-microtiter plates (Greiner Bio-one, 784076).
Aminoglycosides are bactericidal antibiotics causing translational miscoding with lethal consequences for the cell. Leakage of small molecules following an aminoglycoside shock was previously identified by different methods including radiolabelling. Therefore, the inventors investigated the response of live cells to aminoglycoside stress.

Series [2] concerns S. aureus USA300. The series is described as follows: CFU kill assay of stationary phase cells with or without centrifugation. It counts as cell-based, Staphylococcus aureus. As for the experimental part:
FIG. 4. A. Centrifugation with change for fresh medium prior to aminoglycoside exposure stimulates drug bactericidal effect. S. aureus USA300 in TSB medium with 0.25% glucose was incubated until stationary phase has been reached at 37° C. Cells were either centrifuged at 12 000 rpm for 5 minutes (+) or placed at 37° C. without centrifugation (≠). After centrifugation, pellets were washed with fresh broth and placed at 37° C. Depending on the test, different concentrations of neomycin were added. S. aureus USA300 samples that were centrifuged and washed with fresh broth are more sensitive to neomycin. For instance, bacterial CFU go below the detection threshold (10^2 CFU/ml) at 2 hours for 8 mM and 2 mM concentrations while it takes 2 more hours for the 0.5 mM concentration. Bars represent the standard error from the mean (SEM) calculated on GraphPad Prism version 8.4.1. B. S. aureus USA300 in TSB medium with 0.25% glucose was incubated until stationary phase has been reached at 37° C. Cells were either centrifuged at 12 000 rpm for 5 minutes or placed at 37° C. without centrifugation. After centrifugation, pellets were washed with fresh broth and placed at 37° C. A volume of 100 μL of fresh media with 4 mM of neomycin was added to all the tubes (final concentration at 2 mM), centrifuged or not, 5, 15, 30, 60 and 120 minutes post-centrifugation. Samples were incubated for a total of 2 hours with the neomycin before being washed three times with PBS 1×, diluted and incubated on tryptic soy agar. The next day, colony forming units/mL were counted. Bars represent the standard deviation (SD) calculated on GraphPad Prism version 8.4.3.

Series [3] concerns E. coli MG1655 KanR. Nature of the series: ATP leakage assay on aminoglycoside resistant strain (KanR, APH(3′)-IIa). To be noted: MOPS minimal medium (glucose 0.4%), increasing concentrations, 37° C. The class given is cell-based, Escherichia coli. Here is the method:
FIG. 7. Absence of ATP leakage with an aminoglycoside resistant strain E. coli MG1655. The resistant strain (MG KanR) contains the gene for expression of the aminoglycoside O-phosphotransferase APH(3′)-IIa. ATP release of resistant (KanR) or non-resistant (WT) MG 1655 E. coli cells exposed in MOPS minimal medium (glucose 0.4%) to increasing concentrations of neomycin at 37° C. ATP leakage was absent for the resistant strain (KanR).
The classical luciferase was from Molecular Probes (ATP Determination Kit (A22066)). The thermostable luciferase was from “CheckLite AT100” (kikkoman). The Luciferin-luciferase reagents were prepared following manufacturer instructions. Bacteria from exponentially growing cultures (OD600=0.3) were added to each well (60 μl/well) of a black 96-microtiter plate (Greiner Bio-one, 655076) and 20 μl of the luciferin-luciferase reagent solution was added. The microtiter plate was incubated 5 min at 37° C. for reaction with the luciferase to eliminate traces of extracellular ATP. Then 40 μl of antibiotic solution (3 times concentrated) prepared in the culture medium were added. Bioluminescence of each well was monitored for 4 hours under shaking (218 rpm) and at 28 or 37° C., depending on the experiments (see legends of Figures). The reagent stability in presence or absence of antibiotics was checked in control experiments without bacteria but with 4 pmoles of ATP. […]

For series [4], the system named is E. coli. Nature of the series: Survival assay (kill curves, CFU) with neomycin. It counts as cell-based, Escherichia coli. To be noted: different neomycin concentrations, LB.
Series [5] concerns biofilm of the multidrug-resistant Staphylococcus aureus USA300 strain. The series is described as follows: Drug dependent ATP release from biofilm. It counts as cell-based. To be noted: washed biofilm, 37° C., FIG. 20b. As for the experimental part: FIG. 20. Drug dependent ATP release from biofilm of the multidrug-resistant Staphylococcus aureus USA300 strain. A, Control experiment at 37° C. in absence of antibiotic. Biofilms were washed with MOPS medium prior to be exposed to neomycin in the bioluminescent assay. Biofilms were obtained as described in the Examples section and washed twice with MOPS-G medium. Wash solutions were tested for the presence of ATP with the bioluminescence assay. […] Washed biofilms were then tested for ATP release. Signals were present in the first 40 min. This ATP release probably originates from shaking of the biofilm in the plate reader with physical perturbation of the biofilm. B, Biofilm response at 37° C. to drug exposure.
Biofilms were produced by following standard protocols. Briefly, S. aureus USA300 was incubated overnight in tryptic-soy broth (with 0.25% glucose) at 37° C. with 180 rpm agitation. Wells of a FLUOTRAC™ microplate (sterilized beforehand) were then filled with 150 μl of the inoculated broth previously diluted to obtain average concentrations between 10^5-10^6 CFU/ml. The microplate was covered and incubated at 37° C. for 18 hours. Biofilms were then washed twice with 150 μl of MOPS. 80 μl of the wash solution was not discarded and placed in an adjacent well to observe the quantity of ATP it contained. […]

Series [6] deals with Escherichia coli MG1655. Nature of the series: Antibiotic MIC determination (serial twofold dilutions, OD600 during 17 hours at 37° C.). The class given is cell-based. Here is the method: The Minimal Inhibitory Concentration (MIC) of the antibiotics was determined under the same culture conditions as the tests using the ATP assay kit. […] An exponentially growing culture (OD600=0.3) was added to each well (60 μl/well) of a sterile microtiter plate containing the test concentration of antibiotic (40 μl/well). The volume was completed to 120 μl with medium and OD600 nm measurements were performed using a microtiter plate reader (Infinite 200 PRO, TECAN) during 17 hours at 37° C.
In all the following experiments, the MIC values were measured for each antibiotic with parameters such as temperature, OD600 and equipment identical to those used for the bioluminescence assay.

Series [7] is described as follows: Comparative stability assay of classical and thermostable luciferase at 37° C. It counts as physicochemical. Here is the method:
For performing this assay, a classical luciferase (firefly luciferase; Molecular Probes ATP determination kit A22066) and the thermostable luciferase (Checklite kit, Kikkoman, AAE43251.1) were used according to the manufacturer's instructions. Both types of luciferases were added to rich LB or minimal MOPS-Glucose media pre-heated at 37° C. At various times during incubation, aliquots of the solutions were collected, supplemented with reagents and mixed with 0.8 pmole of ATP for bioluminescence readings. Immediately after mixing, bioluminescence measurements were performed at 37° C. using an InfinitePro200, TECAN plate reader in a total volume of 12 μL on a 384-wells microtiter plate (Greiner Bio-one, 784076).

Like-named read-outs stand apart in the source and are kept apart here.

For Neomycin, the “Shape of ATP release trace” value in series [1] (LB medium, 37° C., FIG. 8) was “bi-phasic”; in series [1] (MOPS minimal medium (glucose 0.4%), FIG. 11) it was “monophasic”. For the same substance, the “Lag time before ATP” value in series [1] (antibiotic at 5.6 μg/mL, LB, 37° C.) was 48.6 min; in series [1] (antibiotic at 11.25 μg/mL, LB, 37° C.), 42.4 min; in series [1] (antibiotic at 22.8 μg/mL, LB, 37° C.), 16.3 min; in series [1] (antibiotic at 45.0 μg/mL, LB, 37° C.) it was 12.8 min; in series [1] (antibiotic at 91.0 μg/mL, LB, 37° C.) it was 9.4 min. For the same substance, in series [1] (highest concentrations tested, LB, 37° C.), the “Lag before ATP release (shortest, incompressible value)” value is given as “about 9.4 min”. The “Time at which bacterial CFU go below the detection threshold (10^2 CFU/ml)” value in series [2] (0.5 mM, samples centrifuged and washed, compared with 8 mM and 2 mM) came out at 2 more hours; in series [2] (2 mM, samples centrifuged and washed with fresh broth), 2 hours; in series [2] (8 mM, samples centrifuged and washed with fresh broth) it was 2 hours. The ATP leakage entry in series [3] is reported as “absent”. Moreover, the “Number of colonies forming units (CFU) during the first 90 minutes” value in series [4] was “remained constant”. The “ATP release from biofilm” value in series [5] is listed as “triggered ATP release”. The “MIC in LB” value in series [6] (LB medium, OD600 0.15 final, 37° C.) amounted to 22.8 µg/mL. Besides, the “MIC in MOPS glucose 0.4%” value in series [6] (MOPS minimal medium glucose 0.4%, 37° C.) turned out to be 0.8 µg/mL. The “Experimental MIC” value in series [6] (Mueller Hinton media, EUCAST inoculum) came to 3.12 µg/mL.
For the substance “classical firefly luciferase: firefly luciferase; Molecular Probes ATP determination kit A22066, not thermostable”, the Loss of activity is listed as 70% in series [7] (LB medium, after 12 minutes of incubation) and “more than 80%” in series [7] (minimal MOPS-G medium, in 30 minutes).
